# Data taken from a melting point compilation (Tetko et al.).
row,SMILES,melting point
1,CC(=O)Oc1ccc(C(c2ccc(OC(C)=O)cc2)c2ccccn2)cc1,134 °C
2,CC1C=CCCC1 (centres undefined),-124 °C
3,CC(Br)C(=O)c1ccc(Br)cc1 (centres undefined),85 to 88 °C
4,NC(CCCC(N)C(=O)O)C(=O)O (centres undefined),300 °C
5,O=C(O)c1cccc2c1OCC2,170 to 171 °C
6,COC(=O)c1ccc2c(c1)OCO2,53 °C
7,Cc1ccc(OP(=O)(Oc2ccc(C)cc2)Oc2ccc(C)cc2)cc1,77.5 °C
8,CN1C(=O)CC(c2ccccc2)C1=O (centres undefined),72 °C
9,COc1ccccc1/N=N/c1c(N)nn2c(C(F)(F)F)cc(=O)[nH]c12,295 °C
10,O=[N+]([O-])c1ccc(Sc2ccc(N=C=S)cc2)cc1,124 to 126 °C
11,CC1=C(C=NO)C(=O)C(C(C)C)C=C1 (centres undefined),146 °C
12,O=C(O)c1cc(O)cc(C(=O)O)c1,293 °C
13,CCCCCCC(C)CCC (centres undefined),-77.5 °C
14,CCCCc1ccc(C(N)=O)cc1,127 to 129 °C
15,CCC(C)NC(=O)C(C(F)(F)F)C(F)(F)F (centres undefined),110 to 113 °C
16,CCOC=C(C#N)S(=O)(=O)Cc1ccco1,98 to 100 °C
17,CCCCCCc1ccc(-c2ccccc2)cc1,30 °C
18,CCOc1ccc(-c2nnc3n2NC(c2ccc(OC)cc2)S3)cc1 (centres undefined),198 to 200 °C
19,COc1cc2cc(c1Cl)N(C)C(=O)CC(OC(=O)C(C)N(C)C(C)=O)C1(C)OC1C(C)C1CC(O)(NC(=O)O1)C(OC)C=CC=C(C)C2 (centres undefined),172 °C
20,C[C@@H]1C(=O)[C@H](C)[C@@H](c2ccc(Cl)cc2)O[C@H]1c1ccc(Cl)cc1,190 °C
21,Clc1ccc(C(Cn2ccnc2)OCc2csc3c(Cl)cccc23)c(Cl)c1 (centres undefined),146 °C

row,SMILES,melting point
1,O=CC1=C(Cl)c2cc(Cl)ccc2SC1,84 to 86 °C
2,CCCSc1nnc(S)s1,145 to 147 °C
3,CC(=O)Nc1ccccc1C(F)(F)F,96 °C
4,N#CC(C#N)=Cc1ccc(O)cc1,189 °C
5,FC(F)(F)C(F)(Cl)C(F)(Cl)C(F)(F)F (centres undefined),-68 °C
6,Cc1cnc(Cl)c([N+](=O)[O-])c1,46 to 50 °C
7,C=CCC1(C(C)C)C(=O)NC(=O)N(C)C1=O (centres undefined),56.5 °C
8,COC(=O)C1CC2(C(=O)OC)C=CC1C2 (centres undefined),38 °C
9,COCc1ccc(O)c([N+](=O)[O-])c1,123 °C
10,COc1ccc2nsnc2c1,82 to 83 °C
11,CSc1ccc2ccccc2c1,63 °C
12,COc1ccc(C(=O)Cl)cc1,24.5 °C
13,CCC(C)(CC)OC(N)=O,56 °C
14,CCOC(=O)C1=NN(c2ccccc2)C(=O)C1C(Br)C1(Br)C(=O)N(c2ccccc2)N=C1C(=O)OCC (centres undefined),201 °C
15,CCOC(CCl)OCC,-45 °C
16,CCc1cc(Cc2cc(CC)cc(C(C)(C)C)c2O)c(O)c(C(C)(C)C)c1,120 °C
17,O=C(O)c1n[nH]c2ccc(Br)cc12,290 to 292 °C
18,CCCCNC(=O)CC#N,54 to 55 °C
19,CCCCCCCCC(CCCCCCCC)C(=O)O,38.5 °C
20,Cc1cc2nc3c(=O)[nH]c(=O)nc-3n(CC(O)C(O)C(O)CO)c2cc1C (centres undefined),290 °C
21,O=C(O)c1csc(-c2ccc3c(c2)CCO3)n1,210 to 214 °C

row,SMILES,melting point
1,CCNC(C)Cc1cccc(C(F)(F)F)c1 (centres undefined),110 °C
2,O=C(O)c1cc(F)c(Cl)nc1Cl,154 to 155 °C
3,O=c1n(-c2ccccc2)c(=O)n2n1C1OC3CCC1C32 (centres undefined),144 °C
4,Fc1ccc(NC(=S)Nc2cc(Cl)cc(Cl)c2)cc1,164 °C
5,CC12CCC(c3c(Br)cc(=O)oc31)C2(C)C (centres undefined),105 °C
6,CCc1ccc(-c2ccccc2)cc1,35 °C
7,CCCCCCCCCCCCC1CCC1=O (centres undefined),28 to 31 °C
8,Nn1c(S(=O)(=O)O)nc2ccccc21,252 to 253 °C
9,CCC(O)C1CCCCN1 (centres undefined),121 °C
10,CCCCF,-134 °C
11,O=C(O)CCC(=O)c1ccc(Cl)cc1,129 to 132 °C
12,CC(C)(C#N)N=NC(C)(C)C#N,102 °C
13,CCOC(=O)c1c(C)oc(NC(=O)Nc2ccc(Cl)cc2)c1C(=O)OCC,169 to 170 °C
14,CC(=O)Nc1ccccc1CCN(CCc1ccccc1NC(C)=O)N=O,172 °C
15,Cc1cccc2ccccc12,34 °C
16,CCS(=O)(=O)O,-17 °C
17,CCC(Br)(CC)C(=O)NC(=O)NC(C)=O,109 °C
18,O=C(Oc1ccc(Cl)cc1)c1c(Cl)c(Cl)c(C(=O)Oc2ccc(Cl)cc2)c(Cl)c1Cl,244 °C
19,CC1CCC(=O)N1 (centres undefined),43 °C
20,COC(=O)CC1Sc2ccccc2NC1=O (centres undefined),143 °C
21,COc1ccc2c(C)cc(=O)oc2c1,161 °C

# Further lines, results first:
row,melting point,SMILES
1,91 °C,O=Cc1ccc(C#Cc2ccccc2)s1
2,83.5 °C,Cc1ncsc1C
3,58 °C,CCOC(=O)C(C(=O)OCC)=C(C(=O)OCC)C(=O)OCC
4,120 to 124 °C,NC(=S)c1cccc(I)c1
5,69 °C,O=S(=O)(CCCl)c1ccc(F)cc1
6,75 °C,C=CCC(CC)(CC)C(N)=O
7,191 to 193 °C,SC1=NN=C(S)NN1
8,212 °C,O=[N+]([O-])c1cc([N+](=O)[O-])c(C(Br)C(Br)c2ccccc2)cc1/C=C\c1ccccc1 (centres undefined)
9,214 °C,CC1(C)C2CCC1(C)C(O)C2 (centres undefined)
10,149 °C,O=Cc1cc([N+](=O)[O-])cc(Br)c1O
11,100 °C,Cc1ccc2c3ccccc3c3ccccc3c2c1
12,170 to 171 °C,O=C(Cc1cc(CC(=O)c2ccccc2)c([N+](=O)[O-])cc1[N+](=O)[O-])c1ccccc1
13,250 °C,CC(=O)OC(OC(C)=O)c1ccc2c(c1[N+](=O)[O-])C(=O)c1c(Cl)c(Cl)c(Cl)c(Cl)c1C2=O
14,255 to 258 °C,N#Cc1cn(-c2ccccc2Cl)c(=O)[nH]c1=O
15,100 to 101 °C,CCOC(=O)c1cnc2cc(C)nn2c1C
16,-61.1 °C,CCCC/C=C/CCCCC

row,melting point,SMILES
1,73.3 to 74.4 °C,O=C(Cl)c1ccc(-c2cccs2)s1
2,207 °C,COC(=O)c1cnc(S)n1C
3,-4 °C,Cc1ccnc(C)n1
4,35 to 44 °C,c1ccc(C2Cc3ccccc32)nc1 (centres undefined)
5,103 to 105 °C,CC1(C)CCC(=O)CC1=O
6,38 to 40 °C,CC(=O)c1ccc(Cc2ccccc2)cc1
7,108 to 110 °C,c1cc2c(nn1)CCc1nonc1-2
8,162 to 164 °C,COc1cc2c(cc1OC)C(c1ccc(F)cc1)N(C(C)=O)CC2 (centres undefined)
9,49 to 51 °C,S=C=Nc1cc(Br)ccc1Br
10,-135 °C,C=CC1CO1 (centres undefined)
11,275 °C,Nc1nn2c(C(F)(F)F)cc(=O)[nH]c2c1/N=N/c1c(Cl)cc(Cl)cc1Cl
12,82 to 84 °C,CN(C)S(=O)(=O)c1cccc(C(=O)c2ccccc2)c1
13,270 to 272 °C,O=C(O)c1ccc(C(=O)O)c([N+](=O)[O-])c1
14,48 to 56 °C,COc1ccc2c(c1)CC2C#N (centres undefined)
15,200 °C,CN(C)c1ccc(/C=N/n2c(S)nnc2C(F)(F)F)cc1
